The values below come from ChEMBL document CHEMBL3120070, “Antimycobacterial evaluation of novel hybrid arylidene thiazolidine-2,4-diones” (Bioorg Med Chem Lett, 2014).

In brackets after ≈: the same amount, converted by molar mass. Some results are limits rather than exact numbers.

Series [1] concerns Mycobacterium tuberculosis. The series is described as follows: Antimycobacterial activity against Mycobacterium tuberculosis H37Rv assessed as growth inhibition by Alamar Blue staining-based broth microdilution assay. The class given is functional, organism-based.
The test system of another series is Vero. The series is described as follows: Cytotoxicity against African green monkey Vero cells assessed as cell viability up to 62.5 ug/mL after 72 hrs by MTT assay. The class given is cell-based. As to conditions: chlorocebus sabaeus. In general terms: Tetrazolium assays rely on reduction of a dye to a coloured formazan, in cell work by metabolically active cells.

The subject of series [2] is Mycobacterium tuberculosis. The series is described as follows: Potency index, ratio of pyrimethamine MIC90 to compound MIC90 for Mycobacterium tuberculosis H37Rv. The class given is functional.
Series [3] deals with Mycobacterium tuberculosis. The series is described as follows: Potency index, ratio of cycloserine EC50 to compound EC50 for Mycobacterium tuberculosis H37Rv. The class given is functional.
Series [4] deals with Mycobacterium tuberculosis. The series is described as follows: Potency index, ratio of pyrimethamine EC50 to compound EC50 for Mycobacterium tuberculosis H37Rv. The class given is functional.
The subject of series [5] is Mycobacterium tuberculosis. The series is described as follows: Potency index, ratio of pyrimethamine EC90 to compound EC90 for Mycobacterium tuberculosis H37Rv. The class given is functional.

For the compound `O=C(C1CC1)C(c1ccccc1F)N1C(=O)S/C(=C\c2cc(Br)cs2)C1=O` (stereo unspecified), in series [1], the EC50 – broadly, the concentration that produces a half-maximal response – came out at 18 µM; the EC90 (as a rule, the point of the concentration-response curve where the effect stands at 90%) was found to be 27 µM; the MIC90 – broadly, the lowest concentration that inhibits either 90% of growth or 90% of the strains tested, depending on the study – was 50 µM (≈ 23.3 µg/mL). The Activity entry in the series with Vero was “Non-toxic”.

With `O=C(C1CC1)C(c1ccccc1F)N1C(=O)S/C(=C\c2ccc(O)cc2)C1=O` (stereo unspecified), in series [1], the EC50 amounted to 10 µM, the EC90 was 19 µM and the MIC90 stood at 25 µM (≈ 9.94 µg/mL). Further, the Activity entry in the series on Vero is on record as “Non-toxic”. Further, the Ratio in series [2] came out at 4.

In the case of `COc1cc(OC)c(/C=C2\SC(=O)N(C(C(=O)C3CC3)c3ccccc3F)C2=O)c(OC)c1` (stereo unspecified), in series [1], the EC50 was determined as 13 µM, the concentration for an effect of 90% (EC90) was 27 µM and the MIC90 was 50 µM (≈ 23.6 µg/mL). In addition, in the series on Vero, the Activity entry is “Non-toxic”.

Regarding `O=C(C1CC1)C(c1ccccc1F)N1C(=O)S/C(=C\c2ccc3c(c2)OCO3)C1=O` (stereo unspecified), in series [1], the EC50 stood at 9 µM, the EC90 turned out to be 21 µM and the MIC90 came to 25 µM (≈ 10.6 µg/mL). Further, the Activity result in the series with Vero is on record as “Non-toxic”. Moreover, the Ratio in series [2] came out at 4.

In the case of `CSc1ccc(/C=C2\SC(=O)N(C(C(=O)C3CC3)c3ccccc3F)C2=O)cc1` (stereo unspecified), in series [1], the EC50 was 16 µM, the concentration for an effect of 90% (EC90) worked out at 25 µM and the MIC90 turned out to be 25 µM (≈ 10.7 µg/mL). Further, the Activity entry with Vero is given as “Non-toxic”. Further, the Ratio in series [2] worked out at 4.

On to `N[C@@H]1CONC1=O` [CYCLOSERINE], for which, in series [1], the EC50 stood at 12.5 µM, the EC90 is 13.5 µM and the MIC90 came out at 25 µM (≈ 2.55 µg/mL).

Take `COc1ccc(/C=C2\SC(=O)N(C(C(=O)C3CC3)c3ccccc3F)C2=O)cc1OC` (stereo unspecified): in series [1], the EC50 stood at 8 µM, the EC90 was 16 µM and the MIC90 was 25 µM (≈ 11 µg/mL). Also, in the series on Vero, the Activity entry is recorded as “Non-toxic”. Further, in series [2], the Ratio is 4.

For the compound `NNC(=O)c1ccncc1` [ISONIAZID], in series [1], the EC50 amounted to 0.18 µM, the EC90 came out at 0.29 µM and the MIC90 was 0.31 µM (≈ 0.0425 µg/mL).

For the compound `O=C(C1CC1)C(c1ccccc1F)N1C(=O)S/C(=C\c2ccccc2)C1=O` (stereo unspecified), in series [1], the EC50 is 17 µM, the EC90 was determined as 36 µM and the MIC90 stood at 50 µM (≈ 19.1 µg/mL). Moreover, in the series with Vero, the Activity result was “Non-toxic”.

In the case of `O=C(C1CC1)C(c1ccccc1F)N1C(=O)S/C(=C\c2ccc(O)c(O)c2)C1=O` (stereo unspecified), in series [1], the EC50 stood at 21 µM, the EC90 is 55 µM and the MIC90 was 25 µM (≈ 10.3 µg/mL). In the series with Vero, the Activity entry is recorded as “Non-toxic”. For the same compound, the Ratio in series [2] is listed as 4.

With `CCc1nc(N)nc(N)c1-c1ccc(Cl)cc1` [PYRIMETHAMINE], in series [1], the EC50 worked out at 37.4 µM, the EC90 is 75 µM and the MIC90 was found to be 100 µM (≈ 24.9 µg/mL).

Take `COc1cc(Br)c(/C=C2\SC(=O)N(C(C(=O)C3CC3)c3ccccc3F)C2=O)cc1O` (stereo unspecified): in series [1], the EC50 was 15 µM, the EC90 is 54 µM and the MIC90 turned out to be 50 µM (≈ 25.3 µg/mL). Also, the Activity result in the series on Vero is recorded as “Non-toxic”.

For the compound `COc1ccc(/C=C2\SC(=O)N(C(C(=O)C3CC3)c3ccccc3F)C2=O)cc1` (stereo unspecified), in series [1], the EC50 came to 11 µM, the EC90 was determined as 27 µM and the MIC90 came to 25 µM (≈ 10.3 µg/mL). Besides, the Activity entry in the series on Vero is given as “Non-toxic”. Moreover, the Ratio in series [2] was determined as 4.

Regarding `O=C(C1CC1)C(c1ccccc1F)N1C(=O)S/C(=C\c2ccc(F)cc2)C1=O` (stereo unspecified), in series [1], the EC50 was 11 µM, the EC90 worked out at 25 µM and the MIC90 amounted to 25 µM (≈ 9.99 µg/mL). For the same compound, in the series with Vero, the Activity entry was “Non-toxic”. The Ratio in series [2] turned out to be 4.

As for `O=C(C1CC1)C(c1ccccc1F)N1C(=O)S/C(=C\c2c[nH]c3ccccc23)C1=O` (stereo unspecified), in series [1], the EC50 came to 18 µM, the EC90 is 27 µM and the MIC90 stood at 25 µM (≈ 10.5 µg/mL). Further, the Activity entry in the series with Vero was “Non-toxic”. Moreover, in series [2], the Ratio is on record as 4.

As for `O=C(C1CC1)C(c1ccccc1F)N1C(=O)S/C(=C\c2ccc(N3CCCCC3)cc2)C1=O` (stereo unspecified), in series [1], the EC50 is 24 µM, the EC90 is 36 µM and the MIC90 is 25 µM (≈ 11.6 µg/mL). Besides, the Activity result in the series with Vero is recorded as “Non-toxic”. For the same compound, the Ratio in series [2] turned out to be 4.

As to `O=C(C1CC1)C(c1ccccc1F)N1C(=O)CSC1=O` (stereo unspecified), in series [1], the EC50 was found to be 6 µM, the EC90 turned out to be 26 µM and the MIC90 stood at 25 µM (≈ 7.33 µg/mL). The Activity result in the series with Vero was “Non-toxic”. Besides, the Ratio in series [2] is 4.

`O=C(C1CC1)C(c1ccccc1F)N1C(=O)S/C(=C\c2ccc(Cl)cc2)C1=O` (stereo unspecified): in series [1], the EC50 turned out to be 25 µM, the EC90 is 55 µM and the MIC90 came to 50 µM (≈ 20.8 µg/mL). Also, the Activity result in the series with Vero is “Non-toxic”.

Turning to `O=C(C1CC1)C(c1ccccc1F)N1C(=O)S/C(=C\c2ccc3ccccc3n2)C1=O` (stereo unspecified), in series [1], the EC50 is 14 µM, the EC90 is 68 µM and the MIC90 is 25 µM (≈ 10.8 µg/mL). The Activity entry in the series with Vero is recorded as “Non-toxic”. The Ratio in series [2] is recorded as 4.

Turning to `NCC[C@H](O)C(=O)N[C@@H]1C[C@H](N)[C@@H](O[C@H]2O[C@H](CN)[C@@H](O)[C@H](O)[C@H]2O)[C@H](O)[C@H]1O[C@H]1O[C@H](CO)[C@@H](O)[C@H](N)[C@H]1O` [AMIKACIN], in series [1], the EC90 turned out to be 0.08 µM and the MIC90 was found to be 0.16 µM (≈ 0.0937 µg/mL).

Consider `O=C(C1CC1)C(c1ccccc1F)N1C(=O)S/C(=C\c2cccs2)C1=O` (stereo unspecified), for which, in series [3], the “Ratio EC50” value is 1.95. Also, in series [4], the “Ratio EC50” value is 5.85. In series [1], the EC50 was 6 µM, the EC90 came to 11 µM and the MIC90 turned out to be 25 µM (≈ 9.69 µg/mL). Also, the Activity result in the series with Vero is “Non-toxic”. Also, the Ratio in series [5] is listed as 6.26. Also, the Ratio in series [2] worked out at 4.

On to `CC[C@@H](CO)NCCN[C@@H](CC)CO` [ETHAMBUTOL], for which, in series [1], the EC50 was under 1.56 µM, the EC90 worked out at 32.8 µM and the MIC90 amounted to 12.5 µM (≈ 2.55 µg/mL).

As for `COc1cc(/C=C2\SC(=O)N(C(C(=O)C3CC3)c3ccccc3F)C2=O)cc(OC)c1OC` (stereo unspecified), in series [1], the EC50 was determined as 19 µM, the EC90 was 53 µM and the MIC90 stood at 50 µM (≈ 23.6 µg/mL). Further, the Activity result in the series on Vero is “Non-toxic”.
